Reference: patent publication US8735609B2, “Bryostatin analogues, synthetic methods and uses” (The Board of Trustees of the Leland Stanford Junior …, priority 2007, dated 2014)

Columns and labels:
SK-MEL-2 = assay: NCI human cancer cell line growth inhibition: SK-MEL-2 (Melanoma); assay type: cell-based; conditions: Homo sapiens
MOLT-4 = assay: NCI human cancer cell line growth inhibition: MOLT-4 (Leukemia); assay type: cell-based; conditions: Homo sapiens
KM12 = assay: NCI human cancer cell line growth inhibition: KM12 (Colon); assay type: cell-based; conditions: Homo sapiens
SK-MEL-5 = assay: NCI human cancer cell line growth inhibition: SK-MEL-5 (Melanoma); assay type: cell-based; conditions: Homo sapiens
T-47D = assay: NCI human cancer cell line growth inhibition: T-47D (Breast); assay type: cell-based; conditions: Homo sapiens, T47D
786-0 = assay: NCI human cancer cell line growth inhibition: 786-0 (Renal); assay type: cell-based; conditions: Homo sapiens
HL-60(TB) = assay: cells; assay type: cell-based, human; conditions: Homo sapiens, HL-60, read-out: Growth inhibition (GI50)
HT29 = assay: NCI human cancer cell line growth inhibition: HT29 (Colon); assay type: cell-based; conditions: Homo sapiens, HT-29
NCI-H460 = assay type: cell-based, human; conditions: Homo sapiens; NCI-H460, NSC Lung; read-out: Growth inhibition (GI50)
BT-549 = assay: NCI human cancer cell line growth inhibition: BT-549 (Breast); assay type: cell-based; conditions: Homo sapiens
NCI/ADR-RES = assay type: cell-based, human; conditions: Homo sapiens, Breast, read-out: Growth inhibition (GI50) (converted)
PC-3 = assay: NCI human cancer cell line growth inhibition: PC-3 (Prostate); assay type: cell-based; conditions: Homo sapiens
SNB-75 = assay: NCI human cancer cell line growth inhibition: SNB-75 (CNS); assay type: cell-based; conditions: Homo sapiens
HCC-2998 = assay: NCI human cancer cell line growth inhibition: HCC-2998 (Colon); assay type: cell-based; conditions: Homo sapiens
SR = assay: NCI human cancer cell line growth inhibition: SR (Leukemia); assay type: cell-based; conditions: Homo sapiens
UO-31 = assay: NCI human cancer cell line growth inhibition: UO-31 (Renal); assay type: cell-based; conditions: Homo sapiens
DU-145 = assay: NCI human cancer cell line growth inhibition: DU-145 (Prostate); assay type: cell-based; conditions: Homo sapiens
TK-10 = assay: NCI human cancer cell line growth inhibition: TK-10 (Renal); assay type: cell-based; conditions: Homo sapiens
OVCAR-8 = assay: NCI human cancer cell line growth inhibition: OVCAR-8 (Ovarian); assay type: cell-based; conditions: Homo sapiens
HCT-116 = assay: NCI human cancer cell line growth inhibition: HCT-116 (Colon); assay type: cell-based; conditions: Homo sapiens
MI4 = assay: NCI human cancer cell line growth inhibition: MI4 (Melanoma); assay type: cell-based; conditions: Homo sapiens
HS 578T = assay: NCI human cancer cell line growth inhibition: HS 578T (Breast); assay type: cell-based; conditions: Homo sapiens
EKVX = assay: NCI human cancer cell line growth inhibition: EKVX (NSC Lung); assay type: cell-based; conditions: Homo sapiens
LOX IMVI = assay: NCI human cancer cell line growth inhibition: LOX IMVI (Melanoma); assay type: cell-based; conditions: Homo sapiens
HOP-92 = assay: NCI human cancer cell line growth inhibition: HOP-92 (NSC Lung); assay type: cell-based; conditions: Homo sapiens
HOP-62 = assay: NCI human cancer cell line growth inhibition: HOP-62 (NSC Lung); assay type: cell-based; conditions: Homo sapiens
A549/ATCC = assay: NCI human cancer cell line growth inhibition: A549/ATCC (NSC Lung); assay type: cell-based; conditions: Homo sapiens
UACC-62 = assay: NCI human cancer cell line growth inhibition: UACC-62 (Melanoma); assay type: cell-based; conditions: Homo sapiens
CCRF-CEM = assay: NCI human cancer cell line growth inhibition: CCRF-CEM (Leukemia); assay type: cell-based; conditions: Homo sapiens
[1] = tested on: NCI human cancer cell-lines; assay: In vitro inhibition of growth in NCI human cancer cell lines (panel); assay type: cell-based
SW-620 = assay: NCI human cancer cell line growth inhibition: SW-620 (Colon); assay type: cell-based; conditions: Homo sapiens
RPMI-8226 = assay: NCI human cancer cell line growth inhibition: RPMI-8226 (Leukemia); assay type: cell-based; conditions: Homo sapiens
MCF7 = assay: NCI human cancer cell line growth inhibition: MCF7 (Breast); assay type: cell-based; conditions: Homo sapiens
ACHN = assay: NCI human cancer cell line growth inhibition: ACHN (Renal); assay type: cell-based; conditions: Homo sapiens
MDA-MB-231/ATCC = assay: NCI human cancer cell line growth inhibition: MDA-MB-231/ATCC (Breast); assay type: cell-based; conditions: Homo sapiens
OVCAR-5 = assay: NCI human cancer cell line growth inhibition: OVCAR-5 (Ovarian); assay type: cell-based; conditions: Homo sapiens
OVCAR-4 = assay: NCI human cancer cell line growth inhibition: OVCAR-4 (Ovarian); assay type: cell-based; conditions: Homo sapiens
PKCδ-C1B = molecular target: T1, PKCδ-C1B (Mus musculus, UniProt P28867); assay: PKCδ-C1B assay; assay type: binding
T1 construct: made in house
T1 sequence (P28867 231-281 limits assumed): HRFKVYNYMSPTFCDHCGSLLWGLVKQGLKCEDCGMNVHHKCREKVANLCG
Method: Phosphatidyl serine vesicles are prepared by the addition of phosphatidyl serine (10 mg/mL in chloroform, 0.4 mL) to a glass test tube followed by removal of the chloroform under a stream of nitrogen (5 min). […] The resulting solution is stored over ice. […] Stock solutions of compounds are diluted with absolute ethanol in glass in serial fashion. […] The tubes are incubated at 37° C. for 90 min. and then put on ice for 5 min. Each tube is then filtered separately through a pre-soaked filter disc. […] The filter is subsequently rinsed with cold 20 mM TRIS buffer (5 mL) dropwise. […] The filters are immediately counted in a scintillation counter (Beckman LS 6000SC). Counts per minute are averaged among three trials at each concentration.

SK-OV-3 = assay: NCI human cancer cell line growth inhibition: SK-OV-3 (Ovarian); assay type: cell-based; conditions: Homo sapiens

In the case of `CCCCCCCC(=O)O[C@H]1/C(=C/C(=O)OC)C[C@H]2C[C@H](CO)OC(=O)C[C@H](O)C[C@@H]3CCC[C@H](C[C@@H]4CCO[C@H](/C=C/C(C)(C)[C@]1(O)O2)O4)O3` [Formula IIa (702.1)], the GI50 (SK-MEL-2) is reported as 9.55 µM, the GI50 (MOLT-4) is reported as less than 10 nM and the GI50 (KM12) is reported as 4.57 µM. For the same compound, the GI50 (SK-MEL-5) was 372 nM, the GI50 (T-47D) was 9.55 µM and the GI50 (786-0) was 3.47 µM. It also gave a GI50 (HL-60(TB)) of 1450 nM, a GI50 (HT29) of 2820 nM and a GI50 (NCI-H460) of less than 10 nM. It also gave a GI50 (BT-549) of 19.5 µM, a GI50 (NCI/ADR-RES) of 18.2 µM and a GI50 (PC-3) of 2510 nM. The GI50 (SNB-75) was 10.7 µM, the GI50 (HCC-2998) was 28.8 nM and the GI50 (SR) was 7.94 µM. For the same compound, the GI50 (UO-31) was 14.1 µM, the GI50 (DU-145) was 9.55 µM and the GI50 (TK-10) was 93.3 nM. The GI50 (OVCAR-8) was 17 µM, the GI50 (HCT-116) was 4.79 µM and the GI50 (MI4) was 5.5 µM. For the same compound, the GI50 (HS 578T) was 6.61 µM, the GI50 (EKVX) was 2630 nM and the GI50 (LOX IMVI) was 3.39 µM. It also gave a GI50 (HOP-92) of 21.4 µM, a GI50 (HOP-62) of 16.2 µM and a GI50 (A549/ATCC) of 240 nM. The GI50 (UACC-62) was 7.76 µM, the GI50 (CCRF-CEM) was 1550 nM and the “more active than bryostatin-1” value ([1]; K-562, MOLT-4, NCI-H460, HCC-2998, TK-10, MDA-MB-435) was “more than 2 orders of magnitude”. The “potency compared with bryostatin-1, on average” value ([1]; all cell groups tested) was “at least as potent, on average, as bryostatin-1”, the GI50 (SW-620) was 7.59 µM and the GI50 (RPMI-8226) was 1510 nM. The GI50 (MCF7) was 3.98 µM, the GI50 (ACHN) was 1150 nM and the GI50 (MDA-MB-231/ATCC) was 2040 nM. For the same compound, the GI50 (OVCAR-5) was 5.25 µM, the GI50 (OVCAR-4) was 7.08 µM and the Ki (PKCδ-C1B) was 0.3 ± 0.07 nM. The “activity in PKCδ-C1B assay compared with the corresponding C26 methyl-containing analogue” value (PKCδ-C1B; vs Formula 1998a where R^3 is OH) was “significantly higher activity” and the GI50 (SK-OV-3) was 50.1 µM.
